Reference: patent US20230159469A1, “NOVEL PHTHALAZINE DERIVATIVE HAVING ECTONUCLOEOTIDE PYROPHOSPHATASE/PHOSPHODIESTE RASE INHIBITORY ACTIVITY, AND USE THEREOF” (TXINNO BIOSCIENCE INC., priority 2020, published 2023)
Structures can show the parent of a compound that is named as a salt.

Target: T1, human recombinant ENPP1 (Homo sapiens, UniProt P22413)
T1 construct: purchased R & D systems
T1 sequence (P22413 1-925): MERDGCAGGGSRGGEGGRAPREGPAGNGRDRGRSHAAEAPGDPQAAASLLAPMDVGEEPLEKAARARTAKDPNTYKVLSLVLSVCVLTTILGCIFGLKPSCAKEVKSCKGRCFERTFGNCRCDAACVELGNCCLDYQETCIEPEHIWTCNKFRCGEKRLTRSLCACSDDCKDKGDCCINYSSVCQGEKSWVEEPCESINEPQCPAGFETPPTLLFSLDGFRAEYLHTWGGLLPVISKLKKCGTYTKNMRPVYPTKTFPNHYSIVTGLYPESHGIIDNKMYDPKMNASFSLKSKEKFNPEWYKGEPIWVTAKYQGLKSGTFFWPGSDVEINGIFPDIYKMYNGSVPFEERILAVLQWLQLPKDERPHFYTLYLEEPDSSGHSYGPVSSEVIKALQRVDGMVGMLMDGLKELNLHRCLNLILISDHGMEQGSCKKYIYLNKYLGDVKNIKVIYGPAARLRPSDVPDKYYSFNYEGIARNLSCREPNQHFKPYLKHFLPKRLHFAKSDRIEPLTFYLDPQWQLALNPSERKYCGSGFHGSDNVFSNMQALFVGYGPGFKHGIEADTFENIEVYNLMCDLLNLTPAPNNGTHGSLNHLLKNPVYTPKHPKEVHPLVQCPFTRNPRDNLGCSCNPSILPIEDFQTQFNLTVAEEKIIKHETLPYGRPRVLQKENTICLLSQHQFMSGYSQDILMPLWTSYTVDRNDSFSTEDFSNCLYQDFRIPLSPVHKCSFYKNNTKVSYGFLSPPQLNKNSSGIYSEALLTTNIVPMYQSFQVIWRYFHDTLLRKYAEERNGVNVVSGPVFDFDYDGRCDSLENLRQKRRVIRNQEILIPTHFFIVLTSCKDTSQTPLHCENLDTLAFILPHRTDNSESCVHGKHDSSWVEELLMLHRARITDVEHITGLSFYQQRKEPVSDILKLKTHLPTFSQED
Test: ENPP1 enzyme assay with cGAMP substrate (AMP-Glo luminescence)
Type: biochemical
Conditions: human recombinant ENPP1 3 ng/reaction, cGAMP 5 μM, 37° C. 90 minutes, read-out: Enzymatic activity (ENPP1 IC50)
Method: ENPP1 hydrolyzes nucleotides or nucleotide derivatives to produce nucleoside -5′-monophosphate and pyrophosphate. in addition, ENPP1 hydrolyzes 2′,3′-cGAMP to produce 5′-adenosine monophosphate (AMP) and 5′-guanosine monophosphate (GMP). AMP produced from the reaction is measured using the AMP-Glo® kit (Promega). The AMP-Glo® kit contains two reagents. The first reagent terminates the AMP-producing enzymatic reaction, removes ATP and converts the produced AMP into ADP. The second reagent converts ADP to ATP which is used to generate luminescence in the luciferase reaction. The amount of luminescence measured is proportional to the amount of AMP produced by ENPP1.
The final reaction mixture contains 50 mM Tris (pH 8.5) buffer, 250 mM NaCl, 0.5 mM. CaCl2, 1 μM ZnCl2, 5% glycerol and 1% DMSO. […] The reaction was initiated by addition of cGAMP (at a final concentration of 5 μM) and reacted at 37° C. for 90 minutes. At the end of the reaction, 10 μl of the AMP-Glo first reagent was added to stop the reaction and the result was stored at room temperature for […]. After storage, 20 μl of an AMP detection solution (a mixture of AMP-Glo II reagent and Kinase-Gio at a ratio of 1:100) was added and stored at room. temperature for 1 hour. Luminescence signals were measured using a Victor® plate reader (Perkin Elmer). The maximal activity control (containing enzymes and substrates only in the presence of 1% DMSO; MAX) and the minimal activity control (containing substrates and 1% DMSO; MIN) were evaluated simultaneously. In each experiment, serially diluted reference ENPP1 inhibitors were tested together. IC50, indicating % residual activity versus compound concentration was determined by fitting inhibition curves using the 3-parameter analysis of GraphPad Prism® software. Serially diluted samples of one compound were tested two or more times and an average IC50 of each compound was calculated.

Row | Structure (SMILES) | IC50 [µM]
1 | COc1ccc2c(-c3ccc(CN)cc3)nn(C)c(=O)c2c1 [Compound No. 46, 4-(4-(aminomethyl)phenyl)-7-methoxy-2-methylphthalazin-1(2H)-one hydrochloride] | > 10
2 | COc1cc2c(-c3ccc(CNS(N)(=O)=O)cc3)nn(C)c(=O)c2cc1OC [Compound No. 108, N-(4-(6,7-dimethoxy-3-methyl-4-oxo-3,4-dihydrophthalazin-1-yl)benzyl)sulfamide hydrochloride] | 1 to 10
3 | O=c1[nH]nc(Cc2ccccc2)c2ccccc12 [Compound No. 143, 4-benzylphthalazin-1(2H)-one] | > 10
4 | NS(=O)(=O)N1CCc2ccc(-c3n[nH]c(=O)c4ccccc34)cc2C1 [Compound No. 121, 7-(4-oxo-3,4-dihydrophthalazin-1-yl)-3,4-dihydroisoquinoline-2(1H) sulfamide hydrochloride] | < 1
5 | COc1cc2c(Cc3ccc(N(C)S(=O)(=O)NC(=O)OC(C)(C)C)cc3)n[nH]c(=O)c2cc1OC [Example 174, tert-butyl N-(4-((6,7-dimethoxy-4-oxo-3,4-dihydrophthalazin-1-yl)methyl)phenyl)-N-methylsulfamoyl carbamate] | > 10
6 | CC(C)n1nc(-c2ccc(CNS(N)(=O)=O)cc2)c2ccccc2c1=O [Compound No. 99, N-(4-(3-isopropyl-4-oxo-3,4-dihydrophthalazin-1-yl)benzyl)sulfamide trifluoroacetic acid] | > 10
7 | COc1cc2c(Cc3ccc4c(c3)CCN4S(N)(=O)=O)nn(C)c(=O)c2cc1OC [Example 188, 5-((6,7-dimethoxy-3-methyl-4-oxo-3,4-dihydrophthalazin-1-yl)methyl)indoline-1-sulfonamide hydrochloride] | < 1
8 | Nc1cccc(-c2n[nH]c(=O)c3ccccc23)c1 [Compound No. 30, 4-(3-aminophenyl)phthalazin-1(2H)-one hydrochloride] | > 10
9 | CNc1ccc(Cc2nn(C)c(=O)c3cc(OC)c(OC)cc23)cc1 [Example 164, 6,7-dimethoxy-2-methyl-4-(4-(methylamino)benzyl)phthalazin-1(2H)-one hydrochloride] | > 10
10 | NS(=O)(=O)NCC1CCN(c2n[nH]c(=O)c3ccccc23)CC1 [Compound No. 138, N-((1-(4-oxo-3,4-dihydrophthalazin-1-yl)piperidin-4-yl)methyl)sulfamide hydrochloride] | < 1
11 | Cn1nc(-c2ccc3c(c2)CCNC3)c2ccccc2c1=O [Compound No. 56, 2-methyl-4-(1,2,3,4-tetrahydroisoquinolin-6-yl)phthalazin-1(2H)-one hydrochloride] | 1 to 10
12 | CC(C)(C)OC(=O)Nc1cccc(-c2n[nH]c(=O)c3ccccc23)c1 [Compound No. 2, tert-butyl (3-(4-oxo-3,4-dihydrophthalazin-1-yl)phenyl)carbamate] | > 10
13 | COc1cc2c(Cc3ccc(Br)cc3)n[nH]c(=O)c2cc1OC [Example 194, 4-(4-bromobenzyl)-6,7-dimethoxyphthalazin-1(2H)-one] | > 10
14 | CC(C)(C)OC(=O)NCc1ccc(-c2nn(-c3ccccc3)c(=O)c3ccccc23)cc1 [Compound No. 12, tert-butyl (4-(4-oxo-3-phenyl-3,4-dihydrophthalazin-1-yl)benzyl)carbamate] | > 10
15 | Cn1nc(-c2ccc3c(c2)CCN(S(N)(=O)=O)C3)c2ccccc2c1=O [Compound No. 129, 6-(3-methyl-4-oxo-3,4-dihydrophthalazin-1-yl)-3,4-dihydroisoquinoline-2(1H)-sulfonamide hydrochloride] | 1 to 10
16 | CNS(=O)(=O)Cc1ccc(-c2nn(C)c(=O)c3ccccc23)cc1 [Example 200, N methyl-1-(4-(3-methyl-4-oxo-3,4-dihydrophthalazin-1-yl)phenyl)methanesulfonamide] | > 10

Row | Structure (SMILES) | IC50 [µM]
17 | CC(C)(C)OC(=O)NS(=O)(=O)NCc1ccc(-c2nn(Cc3ccc(F)cc3)c(=O)c3ccccc23)cc1 [Compound No. 71, tert-butyl (N-(4-(3-(4-fluorobenzyl)-4-oxo-3,4-dihydrophthalazin-1-yl)benzyl)sulfamoyl)carbamate] | > 10
18 | COc1cc2c(Cc3cccc(NS(=O)(=O)NC(=O)OC(C)(C)C)c3)n[nH]c(=O)c2cc1OC [Example 167, tert-butyl (N-(3-((6,7-dimethoxy-4-oxo-3,4-dihydrophthalazin-1-yl)methyl)phenyl)sulfamoyl)carbamate] | > 10
19 | NS(=O)(=O)NCc1cccc(-c2n[nH]c(=O)c3ccccc23)c1 [Compound No. 95, N-(3-(3-oxo-3,4-dihydrophthalazin-1-yl)benzyl)sulfamide hydrochloride] | < 1
20 | Cn1nc(-c2ccc(CNC(=O)OC(C)(C)C)cc2)c2ccccc2c1=O [Compound No. 9] | > 10
21 | COc1ccc2c(=O)n(C)nc(-c3ccc(CN)cc3)c2c1 [Compound No. 44, (4-(7-methoxy-3-methyl-4-oxo-3,4-dihydrophthalazin-1-yl)phenyl)methanaminium chloride] | 1 to 10
22 | COc1cc2c(Cc3ccc(NS(N)(=O)=O)cc3)n[nH]c(=O)c2cc1OC [Example 182, N-(4-((6,7-dimethoxy-4-oxo-3,4-dihydrophthalazin-1-yl)methyl)phenyl)sulfamide hydrochloride] | < 1
23 | COc1cc2c(-c3cccc(CNS(N)(=O)=O)c3)nn(C)c(=O)c2cc1OC [Compound No. 110, N-(3-(6,7-dimethoxy-3-methyl-4-oxo-3,4-dihydrophthalazin-1-yl)-benzyl) sulfamide] | 1 to 10
24 | COc1cc2c(Cc3cccc(NS(=O)(=O)NC(=O)OC(C)(C)C)c3)nn(C)c(=O)c2cc1OC [Example 168, tert-butyl (N-(3-((6,7-dimethoxy-3-methyl-4-oxo-3,4-dihydrophthalazin-1-yl)methyl)phenyl)sulfamoyl)carbamate] | > 10
25 | Nc1ccc(Cc2n[nH]c(=O)c3ccccc23)cc1 [Example 158, 4-(4-aminobenzyl)-phthalazin-1(2H)-one hydrochloride] | > 10
26 | Cn1nc(-c2cccc(CNS(=O)(=O)NC(=O)OC(C)(C)C)c2)c2ccccc2c1=O [Compound No. 64, tert-butyl N-(3-(3-methyl-4-oxo-3,4-dihydrophthalazin-1-yl)benzyl)sulfamoyl carbamate] | > 10
27 | CC(C)(C)OC(=O)N1CCc2cc(-c3n[nH]c(=O)c4ccccc34)ccc2C1 [Compound No. 26, tert-butyl 6-(4-oxo-3,4-dihydrophthalazin-1-yl)-3,4-dihydroisoquinoline-2(1H)-carboxylate] | > 10
28 | CNc1ccc(Cc2n[nH]c(=O)c3ccccc23)cc1 [Example 162, 4-(4-(methylamino)benzyl)phthalazin-1(2H)-one hydrochloride] | > 10
29 | COc1cc2c(Cc3ccc(N)cc3)nn(C)c(=O)c2cc1OC [Example 161, 4-(4-aminobenzyl)-6,7-dimethoxy-2-methylphthalazin-1(2H)-one hydrochloride] | > 10
30 | COc1cc2c(-c3ccc(CNS(=O)(=O)NC(=O)OC(C)(C)C)cc3)nn(C)c(=O)c2cc1OC [Compound No. 77, tert-butyl (N-(4-(6,7-dimethoxy-3-methyl-4-oxo-3,4-dihydrophthalazin-1-yl)benzyl)sulfamoyl)carbamate] | 1 to 10
31 | CC(C)(C)OC(=O)NS(=O)(=O)NCc1ccc(-c2nn(Cc3ccccc3)c(=O)c3ccccc23)cc1 [Compound No. 70] | > 10
